Assay results reported in US10647673B2, “Acetophenone compound, preparation method thereof, and application thereof in fatty liver prevention and treatment” (Nanjing Bioenergy Medicine Science & Technology Co., Ltd., priority 2017, dated 2020).

Tests used:
Format in all cases: in vivo
[1] = test system: fatty liver of the SD rats; experiment: Pathological sections and grading of fatty liver of SD rats; conditions: compounds 80 mg/kg, Sim 10 mg/kg, OCA 10 mg/kg
Procedure: (§1) 500 g of lard oil was taken, placed in a container, and heated to melt. When the temperature rose to 100° C., it was added with 200 g of cholesterol to dissolve completely, and then further added with 20 g of propylthiouracil. The resulted mixture was stirred well, and added with 500 ml of Tween 80 after dissolution, resulting in an oil phase. At the same time, 600 mL of distilled water and 400 mL of 1,2-propanediol were taken and heated to 60° C. in a water bath, then were added with 40 g of sodium deoxycholate. The resulted mixture was stirred well until realizing complete dissolution, so as to give an aqueous phase. The aqueous phase was added into the oil phase and mixed well to give a lipid emulsion. The lipid emulsion was heated in a water bath of 37° C. before intragastric administration to animals.
(§2) An appropriate amount of pharmaceutical was weighed, added with 0.5% CMC-Na, and mixed homogeneously by grinding. There are groups for Compound 01 (80 mg/kg), Compound 02 (80 mg/kg), Compound 03 (80 mg/kg), Compound 04 (80 mg/kg), Compound 05 (80 mg/kg), Compound 06 (80 mg)/kg), Compound 07 (80 mg/kg), Compound 08 (80 mg/kg), Compound 09 (80 mg/kg), Compound 10 (80 mg/kg), Compound 11 (80 mg/kg), Compound 12 (80 mg/kg), Compound 13 (80 mg/kg), Compound 14 (80 mg/kg), Compound 15 (80 mg/kg), Compound 16 (80 mg/kg), Compound 17 (80 mg/kg), Compound 18 (80 mg/kg), Compound 19 (80 mg/kg), Compound 20 (80 mg/kg), Compound 21 (80 mg/kg), and Compound 22 (80 mg/kg).
(§3) Male SD rats weighing 180-200 g were fed adaptively for 7 days. Based on body weight, 10 animals were used as control and the remaining animals were intragastrically administered with the lipid emulsion every day, 1 ml/100 g body weight for 14 days. After fasting for 12 hours, 1 mL of blood was collected from the orbits of the animals, and was determined by Hitachi Automatic Biochemical Analyzer 7080 for serum cholesterol (CHO), triglyceride (TG), low density lipoprotein (LDL-C) and high density lipoprotein (HDL-C).
(§4) The modeled rats were continued with the intragastric administration of the lipid emulsion. At the same time, the pharmaceutical-administered groups were administrated with a corresponding dose of pharmaceuticals, while the Model group was administrated with an equal volume of solvent. The pharmaceutical-administered groups were administrated with the lipid emulsion in the morning, and with the pharmaceuticals in the afternoon. The animals were measured for the body weight once a week, and were observed. After 14 days of continuous administration, 1 mL of blood was collected from the orbits, and was determined for the contents of triglyceride, cholesterol, low density lipoprotein and high density lipoprotein in blood serum.

[2] = test system: Fatty Liver Diseases of SD Rats; experiment: Liver functions of lipid-emulsion SD rats after administration for 4 weeks; design: unit not given here; conditions: compounds 80 mg/kg, Obeticholic Acid 10 mg/kg
[3] = test system: Fatty Liver Diseases of SD Rats; experiment: Blood serum lipids in SD rats given lipid emulsion (fatty liver model); design: unit not given here; conditions: blood serum after 14 days of continuous administration; compounds 80 mg/kg, Obeticholic Acid 10 mg/kg, intragastric; lipid emulsion continued
Procedure: as §1, §2, §3, §4

[4] = test system: nutritive obesity C57 mice; experiment: Weight loss experiment in nutritive obesity C57 mice; design: key to body weight of mice: body weight in g; conditions: high-fat diet, orlistat 40 mg/kg, Compounds 13 and 14 80 mg/kg intragastric, x ± s, n = 6, in g (unit assumed)
Text: C57 mice, male, 18-20 g of body weight. The mice were randomly divided into Control group, Model group, Orlistat group, Compound 13 group and Compound 14 group, with 6 mice in each group.
(§5) appropriate amounts of orlistat, Compound 13 and Compound 14 were weighed respectively, added with 0.5% CMC-Na and grinded to dissolve.
The mice in Control group were fed with normal diet, and the other mice were fed with high-fat diet. All of the mice had free access to water. After one week of feeding, the pharmaceuticals were intragastrically administrated. The dose was 40 mg/kg body weight for orlistat, 80 mg/kg for Compounds 13 and 14. The body weight of the mice was weighed every week during the experiment which lasted for 28 days.

ob/ob mice = experiment: Weight loss experiment in ob/ob mice; conditions: orlistat 40 mg/kg, other pharmaceuticals 80 mg/kg intragastric, x ± s, n = 6, in g (unit assumed)
Text: […] ob/ob mice, male, 18-20 g of body weight, fed adaptively for one week before use. The mice were randomly divided into Control group, Model group, Orlistat group, Compound 13 group and Compound 14 group, with 6 mice in each group.
as §5
After feeding for one week, the mice were intragastrically administrated with the pharmaceuticals except the mice of Control group. The dose was 40 mg/kg body weight for orlistat, 80 mg/kg for the other pharmaceuticals. The body weight of the mice was weighed every week during the experiment which lasted for 28 days.

Cc1ccc(C)c(OCCCC(C)(C)C(=O)Nc2ccc(C(=O)CNC(=O)c3cccnc3)cc2)c1 [Compound 12]
Pathological grading: Infiltration of inflammatory cells ([1]; animal 1): 0
Pathological grading: Steatotic hepatocytes ([1]; animal 1): 0
Pathological grading: Infiltration of inflammatory cells ([1]; animal 3): 0
Pathological grading: Steatotic hepatocytes ([1]; animal 3): 0
Pathological grading: Steatotic hepatocytes ([1]; animal 4): 0
Pathological grading: Infiltration of inflammatory cells ([1]; animal 5): 0
ALP [2]: 994.50 ± 150.68
ALT [2]: 54.00 ± 5.72
AST [2]: 137.75 ± 31.74
TBIL [2]: 3.25 ± 2.11
CHO (serum cholesterol) [3]: 4.03 ± 0.47
HDL-C (high density lipoprotein) [3]: 1.92 ± 0.11
LDL-C (low density lipoprotein) [3]: 2.16 ± 0.05
TG (triglyceride) [3]: 0.33 ± 0.05

Cc1ccc(C)c(OCCCC(C)(C)C(=O)NCC(=O)c2ccc(O)c(O)c2)c1 [Compound 21]
Pathological grading: Steatotic hepatocytes ([1]; animal 1): + (25-45% of hepatocytes undergoing steatosis)
Pathological grading: Steatotic hepatocytes ([1]; animal 2): 0
Pathological grading: Steatotic hepatocytes ([1]; animal 3): + (25-45% of hepatocytes undergoing steatosis)
Pathological grading: Infiltration of inflammatory cells ([1]; animal 4): 0
Pathological grading: Steatotic hepatocytes ([1]; animal 4): + (25-45% of hepatocytes undergoing steatosis)
Pathological grading: Steatotic hepatocytes ([1]; animal 5): + (25-45% of hepatocytes undergoing steatosis)
ALP [2]: 1074.00 ± 181.32
ALT [2]: 65.6 ± 27.20
AST [2]: 184.40 ± 18.68
TBIL [2]: 3.23 ± 1.35
CHO (serum cholesterol) [3]: 4.37 ± 0.62
HDL-C (high density lipoprotein) [3]: 1.99 ± 0.44
LDL-C (low density lipoprotein) [3]: 2.09 ± 0.68
TG (triglyceride) [3]: 0.80 ± 0.13

CC(=O)c1ccc(NC(=O)C(C)(C)CCCOc2cc(C)ccc2C)cc1 [Compound 02]
Pathological grading: Steatotic hepatocytes ([1]; animal 1): + (25-45% of hepatocytes undergoing steatosis)
Pathological grading: Steatotic hepatocytes ([1]; animal 2): + (25-45% of hepatocytes undergoing steatosis)
Pathological grading: Steatotic hepatocytes ([1]; animal 3): ++ (45-65% of hepatocytes undergoing steatosis)
Pathological grading: Steatotic hepatocytes ([1]; animal 4): + (25-45% of hepatocytes undergoing steatosis)
Pathological grading: Steatotic hepatocytes ([1]; animal 5): ++ (45-65% of hepatocytes undergoing steatosis)
ALP [2]: 1001.52 ± 273.34
ALT [2]: 62.52 ± 13.24
AST [2]: 187.00 ± 36.44
TBIL [2]: 1.98 ± 0.81
CHO (serum cholesterol) [3]: 4.29 ± 0.65
HDL-C (high density lipoprotein) [3]: 1.74 ± 0.29
LDL-C (low density lipoprotein) [3]: 2.18 ± 0.71
TG (triglyceride) [3]: 0.51 ± 0.19

Cc1ccc(C)c(OCCCC(C)(C)C(=O)NCC(=O)c2ccc(OC(=O)c3cccnc3)c(O)c2)c1 [Compound 22]
Pathological grading: Steatotic hepatocytes ([1]; animal 1): + (25-45% of hepatocytes undergoing steatosis)
Pathological grading: Steatotic hepatocytes ([1]; animal 2): + (25-45% of hepatocytes undergoing steatosis)
Pathological grading: Steatotic hepatocytes ([1]; animal 3): ++ (45-65% of hepatocytes undergoing steatosis)
Pathological grading: Steatotic hepatocytes ([1]; animal 4): + (25-45% of hepatocytes undergoing steatosis)
Pathological grading: Steatotic hepatocytes ([1]; animal 5): + (25-45% of hepatocytes undergoing steatosis)
ALP [2]: 874.33 ± 251.66
ALT [2]: 58.00 ± 2.55
AST [2]: 180.60 ± 27.19
TBIL [2]: 2.97 ± 1.53
CHO (serum cholesterol) [3]: 4.36 ± 1.08
HDL-C (high density lipoprotein) [3]: 1.47 ± 0.51
LDL-C (low density lipoprotein) [3]: 2.87 ± 1.25
TG (triglyceride) [3]: 0.57 ± 0.27

CC[C@H]1[C@@H](O)[C@@H]2[C@H](CC[C@]3(C)[C@@H]([C@H](C)CCC(=O)O)CC[C@@H]23)[C@@]2(C)CC[C@@H](O)C[C@@H]12 [Obeticholic Acid, Obeticholic acid, reference compound]
Pathological grading: Steatotic hepatocytes ([1]; animal 1): ++ (45-65% of hepatocytes undergoing steatosis)
Pathological grading: Steatotic hepatocytes ([1]; animal 2): ++ (45-65% of hepatocytes undergoing steatosis)
Pathological grading: Steatotic hepatocytes ([1]; animal 3): ++ (45-65% of hepatocytes undergoing steatosis)
Pathological grading: Steatotic hepatocytes ([1]; animal 4): +++ (65-85% or more of hepatocytes undergoing steatosis)
Pathological grading: Steatotic hepatocytes ([1]; animal 5): ++ (45-65% of hepatocytes undergoing steatosis)
ALP [2]: 999.60 ± 354.29
ALT [2]: 136.40 ± 62.68
AST [2]: 248.20 ± 156.61
TBIL [2]: 4.06 ± 1.40
CHO (serum cholesterol) [3]: 4.74 ± 0.34
HDL-C (high density lipoprotein) [3]: 1.68 ± 0.22
LDL-C (low density lipoprotein) [3]: 2.85 ± 1.00
TG (triglyceride) [3]: 0.52 ± 0.06

CCCCCCCCCCC[C@@H](C[C@@H]1OC(=O)[C@H]1CCCCCC)OC(=O)[C@H](CC(C)C)NC=O [Orlistat, reference compound]
body weight of mice ([4]; Experiment Day 0): 18.28 ± 0.65
body weight of mice ([4]; Experiment Day 7): 20.29 ± 0.63
body weight of mice ([4]; Experiment Day 14): 21.39 ± 0.70
body weight of mice ([4]; Experiment Day 21): 22.51 ± 0.73
body weight of mice ([4]; Experiment Day 28): 24.47 ± 0.79
body weight of ob/ob mice (ob/ob mice; Experiment Day 0): 20.53 ± 0.50
body weight of ob/ob mice (ob/ob mice; Experiment Day 7): 22.82 ± 1.79
body weight of ob/ob mice (ob/ob mice; Experiment Day 14): 23.98 ± 1.85
body weight of ob/ob mice (ob/ob mice; Experiment Day 21): 26.86 ± 1.99
body weight of ob/ob mice (ob/ob mice; Experiment Day 28): 31.23 ± 2.31
